These are literature values, as cited in patent US20250152503A1, “IMPLANTABLE DEVICES FOR THE SUSTAINED DELIVERY OF AN OPIOID ANTAGONIST AND METHODS FOR TREATING INFLAMMATORY, NEUROINFLAMMATORY AND METABOLIC DISORDERS” (Delpor, Inc., priority 2022, published 2025).

Data set [1] concerns the target Toll-like receptor 4 (TLR4) (Homo sapiens, UniProt O00206+Q9Y6Y9).
For data set [2] the following is noted: 25° C.
The conditions of data set [3]: oral, typical dose 50 mg/day.

Toll-like receptor 4 (TLR4), sequence (O00206 24-839, species assumed): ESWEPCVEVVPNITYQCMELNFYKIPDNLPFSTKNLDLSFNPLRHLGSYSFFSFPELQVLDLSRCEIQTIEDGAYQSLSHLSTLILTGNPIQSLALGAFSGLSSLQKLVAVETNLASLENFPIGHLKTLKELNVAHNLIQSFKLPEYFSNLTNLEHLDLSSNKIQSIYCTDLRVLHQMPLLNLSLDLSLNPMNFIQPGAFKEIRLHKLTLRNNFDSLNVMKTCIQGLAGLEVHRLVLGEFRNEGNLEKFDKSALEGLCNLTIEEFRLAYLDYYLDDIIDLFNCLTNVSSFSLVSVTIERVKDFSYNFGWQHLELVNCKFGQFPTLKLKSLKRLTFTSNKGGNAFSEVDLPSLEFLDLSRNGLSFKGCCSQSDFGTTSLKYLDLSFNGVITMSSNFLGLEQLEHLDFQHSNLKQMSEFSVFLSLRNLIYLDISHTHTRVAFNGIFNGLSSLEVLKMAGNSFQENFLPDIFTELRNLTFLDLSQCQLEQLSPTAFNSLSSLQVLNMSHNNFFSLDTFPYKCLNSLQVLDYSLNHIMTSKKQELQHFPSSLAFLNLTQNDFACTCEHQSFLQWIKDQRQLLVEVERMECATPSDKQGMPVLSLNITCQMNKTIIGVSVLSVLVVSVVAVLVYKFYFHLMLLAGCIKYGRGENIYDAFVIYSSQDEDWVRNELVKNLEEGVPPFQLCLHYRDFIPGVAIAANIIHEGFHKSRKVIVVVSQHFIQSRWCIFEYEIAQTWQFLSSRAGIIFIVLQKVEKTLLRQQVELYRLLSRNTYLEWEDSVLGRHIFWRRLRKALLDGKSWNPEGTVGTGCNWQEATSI
Toll-like receptor 4 (TLR4), sequence (Q9Y6Y9 17-160 limits assumed, species assumed): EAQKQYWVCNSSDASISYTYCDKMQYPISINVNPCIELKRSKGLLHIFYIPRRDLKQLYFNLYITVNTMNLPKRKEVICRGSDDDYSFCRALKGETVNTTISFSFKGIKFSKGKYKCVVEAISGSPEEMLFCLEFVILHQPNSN

For the compound (−)-naltrexone, in data set [1], the “antagonism of TLR4 signaling” value is listed as “antagonize TLR4 signaling”.

Consider `C=C1CC[C@@]2(O)[C@H]3Cc4ccc(O)c5c4[C@@]2(CCN3CC2CC2)[C@H]1O5` [nalmefene], for which the reported aqueous solubility in data set [2] was 140 µg/mL.

Consider `O=C1CC[C@@]2(O)[C@H]3Cc4ccc(O)c5c4[C@@]2(CCN3CC2CC2)[C@H]1O5` [naltrexone], for which, in data set [3], the average bioavailability is given as 5-40%. For the same compound, the reported aqueous solubility in data set [2] was 667 µg/mL.

Consider (−)-naloxone, for which the “antagonism of TLR4 signaling” value in data set [1] is “antagonize TLR4 signaling”.

As for `C=CCN1CC[C@]23c4c5ccc(O)c4O[C@H]2C(=O)CC[C@]3(O)[C@H]1C5` [(+)-naloxone], the “antagonism of TLR4 signaling” value in data set [1] was “antagonize TLR4 signaling”.

As to `O=C1CC[C@]2(O)[C@@H]3Cc4ccc(O)c5c4[C@]2(CCN3CC2CC2)[C@@H]1O5` [(+)-naltrexone], the “antagonism of TLR4 signaling” value in data set [1] was “antagonize TLR4 signaling”.

Turning to (−)-nalmefene, in data set [1], the “antagonism of TLR4 signaling” value is “antagonize TLR4 signaling”.
